Experimental data taken from publication PMC2837466 (Journal of chromatography. B, Analytical technologies in …, 2010).

Target: human serum albumin (HSA) (Homo sapiens, UniProt P02768)
Test: high-performance affinity chromatography, frontal analysis
Type: binding

human serum albumin (HSA), sequence (P02768 25-609): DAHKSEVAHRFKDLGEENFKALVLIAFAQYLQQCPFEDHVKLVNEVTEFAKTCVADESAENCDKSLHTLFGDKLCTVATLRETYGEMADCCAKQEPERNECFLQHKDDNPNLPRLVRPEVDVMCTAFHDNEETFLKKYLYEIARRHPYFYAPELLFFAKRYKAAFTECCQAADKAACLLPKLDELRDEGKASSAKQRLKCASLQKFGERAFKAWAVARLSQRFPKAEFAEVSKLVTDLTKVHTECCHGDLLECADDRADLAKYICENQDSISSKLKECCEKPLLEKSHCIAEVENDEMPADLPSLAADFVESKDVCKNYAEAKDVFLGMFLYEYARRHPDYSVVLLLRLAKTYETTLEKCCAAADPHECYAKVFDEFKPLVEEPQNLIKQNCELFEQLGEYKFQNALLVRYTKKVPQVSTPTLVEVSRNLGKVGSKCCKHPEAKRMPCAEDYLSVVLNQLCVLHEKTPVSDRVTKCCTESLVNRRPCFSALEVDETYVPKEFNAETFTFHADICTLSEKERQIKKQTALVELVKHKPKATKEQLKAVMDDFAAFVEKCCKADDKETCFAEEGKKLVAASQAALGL

- Kd: 21.3 µM
Compound: CCN(CC)CC(=O)Nc1c(C)cccc1C [lidocaine]
